Experimental data from patent US20150297672A1, “Alpha- and gamma-MSH analogues” (TXP Pharma GmbH, priority 2014, published 2015).

Tests used:
[1] = biological target: T1, human MC1r (Homo sapiens, UniProt Q01726); assay: Test 3: receptor efficacy, cAMP enzyme immunoassay in stably transfected HEK cells expressing the human MC1r; format: cell-based; design: expressed in transfected cells; settings: for Emax: HEK293, IBMX present, read-out: maximal efficacy Emax (max efficacy expressed as percent of αMSH); for EC50: IBMX present
T1 sequence (Q01726 whole entry): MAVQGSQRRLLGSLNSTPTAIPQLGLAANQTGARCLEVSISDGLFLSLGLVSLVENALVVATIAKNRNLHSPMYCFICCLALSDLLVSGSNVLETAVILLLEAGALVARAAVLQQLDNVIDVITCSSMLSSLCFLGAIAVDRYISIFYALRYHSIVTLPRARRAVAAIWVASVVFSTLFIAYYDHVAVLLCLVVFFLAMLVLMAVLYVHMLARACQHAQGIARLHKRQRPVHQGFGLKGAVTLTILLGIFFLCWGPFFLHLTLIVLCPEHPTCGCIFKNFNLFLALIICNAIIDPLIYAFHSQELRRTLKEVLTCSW
Text: The immune modulating effects of melanocortins are mediated through MC1r and/or MC3r stimulation on immune competent cells in tissues, organs and plasma. MC1r and/or MC3r are expressed in immune competent cells including monocytes, macrophages, neutrophils t-cells and dendritic cells. Stimulation of the MCr1 and/or MC3r is associated with attenuation of cytokine production and activation of pro-resolving effects. The binding affinity and the receptor efficacy (alternative expression is potency) of a given melanocortin together, in some embodiments, makes up the overall efficacy of a given compound.
Alternatively MCR1 receptor efficacy was tested in stably transfected HEK cells expressing the human MC1r. Cells were grown in Dulbecco's modified Eagle's medium 1885 supplemented with 10% fetal calf serum, 2 mm glutamine, and 0.01 mg/ml gentamicin. The expression plasmids containing the cDNAs encoding the wild-type or the mutated receptors were expressed after transfection according to the calcium phosphate precipitation method. The cells were kept frozen until the experiments where the cells was grown in RPMI 1640 medium supplemented with 2 mm 1-glutamine adjusted to contain 1.5 g/liter sodium bicarbonate, 4.5 g/liter glucose, 10 mm HEPES, 1.0 mm sodium pyruvate, and 10% fetal bovine serum.
Cells (2.5×10^5 cells per well) were incubated for 15 min at 37° C. in 1 ml of freshly prepared binding buffer supplemented with 5.10-4 M of the non-specific phosphodiesterase inhibitor 3-Isobutyl-1-methylxanthine (IBMX), 40 μg/ml bacitracin, and various concentrations of test compound. After incubation, cells were placed on ice, medium was removed, and cells lysed. Measurement of cAMP in the samples was conducted by use of a commercial cAMP Enzyme Immunoassay kit from Cayman Chemicals (Cat. No 581001). All cAMP concentrations were expressed relative to the total number of cells in the individual samples.

[2] = tested on: normal human lung fibroblasts (NHLF); settings: TGFβ1-induced NHLF, at higher doses; U.S. provisional application 61/785,631; cited from earlier work
[3] = biological target: T1, human MC1r; assay: Test 2: receptor efficacy, cAMP production (HTRF) in CHO-K1 cells expressing MC1r; settings: nM of cAMP, IBMX 1 mM
Procedure: CHO-Kl cells expressing either the MC1r or the MC3r grown in media without antibiotic were detached by gentle flushing with PBS-EDTA (5 mM EDTA), recovered by centrifugation and resuspended in assay buffer (KRH: 5 mM KCl, 1.25 mM MgSO4, 124 mM NaCl, 25 mM HEPES, 13.3 mM Glucose, 1.25 mM KH2PO4, 1.45 mM CaC12, 0.5 g/1 BSA).
12 μl of cells were mixed with 12 μl of the test compound at increasing concentrations in 96 wells plates and then incubated 30 min at room temperature. cAMP production was determined after addition of a lysis buffer and 1 hour incubation, by use of competitive immunoassay using cryptate-labeled anti-cAMP and d2-labeled cAMP (HTRF kit from CisBio) with Delta F percentage values calculated according to the manufacturer specification. Dose response curves were performed in parallel with test compounds, and reference compounds.
The HTRF technology is a titration assay based on a competition between labeled cAMP (exogenous) and cAMP produced by the cell after activation of the MCr. The dynamic range of the assay was 3-4 fold meaning that the linear range (which enables conversion from raw data to nM of cAMP) is within that range.
Data is presented as mean values.

Row | Molecule | Emax [1] [%] | EC50 [1] [nM] | effect on ECM collagen [2] | maximal efficacy (Emax) [3] [nM]
1 | CCCC[C@H](NC(=O)[C@H](CO)NC(=O)[C@H](Cc1ccc(O)cc1)NC(=O)[C@H](CO)NC(=O)[C@H](CCCCN)NC(=O)[C@H](CCCCN)NC(=O)[C@H](CCCCN)NC(=O)[C@H](CCCCN)NC(=O)[C@H](CCCCN)NC(=O)[C@H](CCCCN)NC(C)=O)C(=O)N[C@@H](CCC(=O)O)C(=O)N[C@@H](Cc1c[nH]cn1)C(=O)N[C@H](Cc1ccccc1)C(=O)N[C@@H](CCCNC(=N)N)C(=O)N[C@@H](Cc1c[nH]c2ccccc12)C(=O)NCC(=O)N[C@@H](CCCCN)C(=O)N1CCC[C@H]1C(=O)N[C@H](C(N)=O)C(C)C [Ac(Lys)6-NDP-αMSH, Ac(Lys)6-Ser-Tyr-Ser-Nle Glu-His-(D-Phe)-Arg-Trp-Gly-Lys-Pro-Val-NH2] | 62 ± 8 | 1.35 | – | –
2 | ACTH: Adrenocorticotropic hormone, the native ligand to the type 2 receptor (MC2r) (SYSMEHFRWGKPVGKKRRPVKVYPNGAEDESAEAFPLEF; Corticotropin; UniProt P01189 138-176, looked up) | – | – | statistically significant reduction in ECM collagen | –
3 | CSCC[C@H](NC(=O)[C@H](CO)NC(=O)[C@H](Cc1ccc(O)cc1)NC(=O)[C@H](CO)NC(=O)[C@H](CCCCNC(=O)[C@H](CCCCN)NC(=O)[C@H](CCCCN)NC(C)=O)NC(C)=O)C(=O)N[C@@H](CCC(=O)O)C(=O)N[C@@H](Cc1c[nH]cn1)C(=O)N[C@@H](Cc1ccccc1)C(=O)N[C@@H](CCCNC(=N)N)C(=O)N[C@@H](Cc1c[nH]c2ccccc12)C(=O)NCC(=O)N[C@@H](CCCCN)C(=O)N1CCC[C@H]1C(=O)N[C@H](C(N)=O)C(C)C [α-MSH analogue #1] | – | – | – | ~3
4 | CSCC[C@H](NC(=O)[C@H](CO)NC(=O)[C@H](Cc1ccc(O)cc1)NC(=O)[C@H](CO)NC(=O)[C@H](CCCCN)NC(=O)[C@H](CCCCN)NC(=O)[C@H](CCCCN)NC(=O)[C@H](CCCCN)NC(=O)[C@H](CCCCN)NC(=O)[C@H](CCCCN)NC(C)=O)C(=O)N[C@@H](CCC(=O)O)C(=O)N[C@@H](Cc1c[nH]cn1)C(=O)N[C@@H](Cc1ccccc1)C(=O)N[C@@H](CCCNC(=N)N)C(=O)N[C@@H](Cc1c[nH]c2ccccc12)C(=O)NCC(=O)N[C@@H](CCCCN)C(=O)N1CCC[C@H]1C(=O)N[C@H](C(N)=O)C(C)C [Ac(Lys)6-αMSH] | 72 ± 5 | 2.12 | – | ~3
